Measured values reported in ChEMBL document CHEMBL1150976, “The selectivity of protein kinase inhibitors: a further update” (Biochem J, 2007).

What was measured:
[1] = target: Calcium/calmodulin-dependent protein kinase kinase 1 (Homo sapiens) (UniProt Q8N5S9); experiment: Percentage CaMKKalpha activity remaining in the presence of 2uM inhibitor
[2] = target: Serine/threonine-protein kinase PAK 6 (Homo sapiens) (UniProt Q9NQU5); experiment: Percentage PAK6 activity remaining in the presence of 2uM inhibitor
[3] = target: MAP/microtubule affinity-regulating kinase 3 (Homo sapiens) (UniProt P27448); experiment: Percentage MARK3 activity remaining in the presence of 2uM inhibitor
[4] = target: T1, Serine/threonine-protein kinase Nek2 (Homo sapiens) (UniProt P51955); experiment: Percentage NEK2a activity remaining in the presence of 0.01uM inhibitor
T1 sequence (whole entry): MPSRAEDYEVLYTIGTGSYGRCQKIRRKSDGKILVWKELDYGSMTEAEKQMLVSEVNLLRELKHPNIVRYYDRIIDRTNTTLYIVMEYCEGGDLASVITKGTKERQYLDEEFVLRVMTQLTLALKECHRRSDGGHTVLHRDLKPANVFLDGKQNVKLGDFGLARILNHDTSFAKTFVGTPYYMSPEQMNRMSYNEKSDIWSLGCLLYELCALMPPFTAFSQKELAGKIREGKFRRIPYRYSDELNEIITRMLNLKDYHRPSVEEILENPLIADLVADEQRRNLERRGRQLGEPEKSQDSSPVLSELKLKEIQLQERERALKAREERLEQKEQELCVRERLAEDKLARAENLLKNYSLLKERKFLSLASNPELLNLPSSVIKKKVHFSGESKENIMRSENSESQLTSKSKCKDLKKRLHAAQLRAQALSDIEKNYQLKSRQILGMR

[5] = target: Serine/threonine-protein kinase Chk2 (Homo sapiens) (UniProt O96017); experiment: Percentage CHK2 activity remaining in the presence of 0.01uM inhibitor
[6] = target: Serine/threonine-protein kinase pim-1 (Homo sapiens, UniProt P11309); experiment: Percentage PIM1 activity remaining in the presence of 25uM inhibitor; conditions: filed as antagonist
[7] = target: Calcium/calmodulin-dependent protein kinase kinase 2 (Homo sapiens) (UniProt Q96RR4); experiment: Percentage CaMKKbeta activity remaining in the presence of 25uM inhibitor
[8] = target: T2, MAP kinase-activated protein kinase 5 (Homo sapiens) (UniProt Q8IW41); experiment: Percentage PRAK activity remaining in the presence of 25uM inhibitor
T2 sequence (whole entry): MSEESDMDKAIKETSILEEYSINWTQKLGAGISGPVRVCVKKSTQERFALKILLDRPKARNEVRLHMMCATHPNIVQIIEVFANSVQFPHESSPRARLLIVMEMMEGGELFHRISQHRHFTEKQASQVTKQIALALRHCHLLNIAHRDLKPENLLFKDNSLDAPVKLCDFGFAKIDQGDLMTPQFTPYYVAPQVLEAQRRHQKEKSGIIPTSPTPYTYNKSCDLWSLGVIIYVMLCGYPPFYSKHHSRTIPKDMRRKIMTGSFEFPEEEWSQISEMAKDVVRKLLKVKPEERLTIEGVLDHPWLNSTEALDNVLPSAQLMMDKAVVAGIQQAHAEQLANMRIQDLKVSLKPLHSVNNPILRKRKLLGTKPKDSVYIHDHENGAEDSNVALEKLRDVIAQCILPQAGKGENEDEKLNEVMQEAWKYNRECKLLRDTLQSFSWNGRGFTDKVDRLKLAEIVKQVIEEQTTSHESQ

[9] = target: Calcium/calmodulin-dependent protein kinase kinase 1 (Homo sapiens) (UniProt Q8N5S9); experiment: Percentage CaMKKalpha activity remaining in the presence of 25uM inhibitor
[10] = target: Calcium/calmodulin-dependent protein kinase type 1 (Homo sapiens) (UniProt Q14012); experiment: Percentage CaMK1 activity remaining in the presence of 25uM inhibitor
[11] = target: T3, Inhibitor of nuclear factor kappa-B kinase subunit beta (Homo sapiens) (UniProt O14920); experiment: Percentage IKK-beta activity remaining in the presence of 25uM inhibitor
T3 sequence (whole entry): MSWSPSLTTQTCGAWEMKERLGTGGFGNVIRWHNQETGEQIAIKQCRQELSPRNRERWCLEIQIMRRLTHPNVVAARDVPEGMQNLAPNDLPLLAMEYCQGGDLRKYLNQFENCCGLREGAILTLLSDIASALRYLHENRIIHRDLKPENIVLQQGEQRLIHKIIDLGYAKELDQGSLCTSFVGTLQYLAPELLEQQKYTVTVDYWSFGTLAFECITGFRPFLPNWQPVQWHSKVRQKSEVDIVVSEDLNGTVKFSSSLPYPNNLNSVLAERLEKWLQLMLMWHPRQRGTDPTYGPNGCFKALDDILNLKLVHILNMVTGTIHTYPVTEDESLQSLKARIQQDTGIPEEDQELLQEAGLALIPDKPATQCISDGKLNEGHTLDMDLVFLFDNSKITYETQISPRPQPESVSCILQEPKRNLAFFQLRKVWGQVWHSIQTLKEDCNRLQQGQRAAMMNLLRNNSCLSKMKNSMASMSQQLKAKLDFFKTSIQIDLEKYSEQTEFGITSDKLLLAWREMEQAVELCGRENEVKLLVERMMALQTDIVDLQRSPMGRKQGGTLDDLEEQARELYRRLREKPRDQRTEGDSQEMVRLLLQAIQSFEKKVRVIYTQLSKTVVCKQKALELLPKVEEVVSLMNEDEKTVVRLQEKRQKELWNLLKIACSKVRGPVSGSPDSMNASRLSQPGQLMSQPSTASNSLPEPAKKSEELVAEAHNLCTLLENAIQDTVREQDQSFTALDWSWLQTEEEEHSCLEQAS

[12] = target: Dual specificity mitogen-activated protein kinase kinase 1 (Homo sapiens) (UniProt Q02750); experiment: Percentage MKK1 activity remaining in the presence of 25uM inhibitor
[13] = target: Proto-oncogene tyrosine-protein kinase LCK (Mus musculus, UniProt P06240); experiment: Inhibition of Lck in the presence of 50uM ATP
[14] = target: T4, 3-phosphoinositide-dependent protein kinase 1 (Homo sapiens) (UniProt O15530); experiment: Percentage PDK1 activity remaining in the presence of 3uM inhibitor
T4 sequence (whole entry): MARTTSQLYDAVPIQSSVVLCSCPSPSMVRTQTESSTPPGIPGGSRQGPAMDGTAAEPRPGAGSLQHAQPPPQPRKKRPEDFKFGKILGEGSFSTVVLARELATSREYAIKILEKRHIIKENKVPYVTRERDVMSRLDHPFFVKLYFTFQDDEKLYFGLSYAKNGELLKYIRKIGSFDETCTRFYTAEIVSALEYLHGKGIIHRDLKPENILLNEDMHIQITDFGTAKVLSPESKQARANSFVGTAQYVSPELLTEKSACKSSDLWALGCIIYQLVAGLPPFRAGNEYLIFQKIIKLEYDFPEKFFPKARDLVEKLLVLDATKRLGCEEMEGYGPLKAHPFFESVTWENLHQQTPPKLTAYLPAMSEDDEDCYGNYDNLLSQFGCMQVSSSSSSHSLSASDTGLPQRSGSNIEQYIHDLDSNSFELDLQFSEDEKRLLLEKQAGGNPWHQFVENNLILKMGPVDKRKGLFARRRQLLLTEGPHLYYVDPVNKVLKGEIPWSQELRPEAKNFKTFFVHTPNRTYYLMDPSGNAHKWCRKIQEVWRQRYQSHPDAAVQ

Sequence of Calcium/calmodulin-dependent protein kinase kinase 1 (Homo sapiens) (Q8N5S9 whole entry, looked up): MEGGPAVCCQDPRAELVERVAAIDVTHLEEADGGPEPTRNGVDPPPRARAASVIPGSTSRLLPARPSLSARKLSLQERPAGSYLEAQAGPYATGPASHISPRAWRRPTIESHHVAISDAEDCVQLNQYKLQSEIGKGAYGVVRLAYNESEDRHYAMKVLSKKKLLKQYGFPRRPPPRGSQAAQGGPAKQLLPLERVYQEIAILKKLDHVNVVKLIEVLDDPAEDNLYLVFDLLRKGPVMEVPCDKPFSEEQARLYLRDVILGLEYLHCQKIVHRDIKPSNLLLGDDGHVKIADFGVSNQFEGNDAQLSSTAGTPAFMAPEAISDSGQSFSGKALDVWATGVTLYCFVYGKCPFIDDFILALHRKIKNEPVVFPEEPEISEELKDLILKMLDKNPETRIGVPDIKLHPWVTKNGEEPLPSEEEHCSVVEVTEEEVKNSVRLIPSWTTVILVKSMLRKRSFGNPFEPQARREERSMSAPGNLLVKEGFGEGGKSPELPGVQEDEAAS
Sequence of Calcium/calmodulin-dependent protein kinase type 1 (Homo sapiens) (Q14012 whole entry, looked up): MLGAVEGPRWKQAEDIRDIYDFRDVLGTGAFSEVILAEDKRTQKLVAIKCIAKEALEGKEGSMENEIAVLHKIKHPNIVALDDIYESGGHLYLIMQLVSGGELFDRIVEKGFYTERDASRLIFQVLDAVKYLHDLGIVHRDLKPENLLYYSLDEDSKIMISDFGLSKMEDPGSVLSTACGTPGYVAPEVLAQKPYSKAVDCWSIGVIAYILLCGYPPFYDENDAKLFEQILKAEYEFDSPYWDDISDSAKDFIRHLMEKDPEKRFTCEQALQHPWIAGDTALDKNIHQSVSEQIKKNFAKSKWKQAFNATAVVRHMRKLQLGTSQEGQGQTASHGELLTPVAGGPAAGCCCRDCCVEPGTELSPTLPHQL
Sequence of Calcium/calmodulin-dependent protein kinase kinase 2 (Homo sapiens) (Q96RR4 2-588 limits assumed): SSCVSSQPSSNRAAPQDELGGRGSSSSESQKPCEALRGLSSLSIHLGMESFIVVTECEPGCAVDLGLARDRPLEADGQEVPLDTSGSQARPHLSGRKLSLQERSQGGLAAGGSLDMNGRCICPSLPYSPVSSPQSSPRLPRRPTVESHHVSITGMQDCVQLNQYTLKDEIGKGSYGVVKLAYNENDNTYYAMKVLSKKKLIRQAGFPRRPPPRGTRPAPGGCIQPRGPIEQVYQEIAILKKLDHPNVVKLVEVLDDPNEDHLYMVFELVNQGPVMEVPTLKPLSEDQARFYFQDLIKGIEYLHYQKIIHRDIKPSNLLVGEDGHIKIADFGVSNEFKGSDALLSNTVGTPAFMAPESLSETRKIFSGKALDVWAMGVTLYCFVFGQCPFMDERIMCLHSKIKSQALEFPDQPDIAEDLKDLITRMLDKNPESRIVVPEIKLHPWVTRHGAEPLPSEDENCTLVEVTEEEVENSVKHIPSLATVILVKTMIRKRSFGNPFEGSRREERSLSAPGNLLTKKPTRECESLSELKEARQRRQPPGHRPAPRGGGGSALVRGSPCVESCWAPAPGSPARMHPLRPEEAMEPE
Sequence of Serine/threonine-protein kinase pim-1 (P11309 whole entry, looked up): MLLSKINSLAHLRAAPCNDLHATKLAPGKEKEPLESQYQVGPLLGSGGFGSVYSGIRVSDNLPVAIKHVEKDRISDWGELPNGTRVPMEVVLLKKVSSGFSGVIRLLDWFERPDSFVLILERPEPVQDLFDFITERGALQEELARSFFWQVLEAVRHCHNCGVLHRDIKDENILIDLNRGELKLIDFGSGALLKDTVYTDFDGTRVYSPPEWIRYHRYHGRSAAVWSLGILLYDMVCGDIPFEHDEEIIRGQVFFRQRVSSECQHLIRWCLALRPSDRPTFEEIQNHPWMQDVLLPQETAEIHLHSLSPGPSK
Sequence of Serine/threonine-protein kinase Chk2 (Homo sapiens) (O96017 whole entry): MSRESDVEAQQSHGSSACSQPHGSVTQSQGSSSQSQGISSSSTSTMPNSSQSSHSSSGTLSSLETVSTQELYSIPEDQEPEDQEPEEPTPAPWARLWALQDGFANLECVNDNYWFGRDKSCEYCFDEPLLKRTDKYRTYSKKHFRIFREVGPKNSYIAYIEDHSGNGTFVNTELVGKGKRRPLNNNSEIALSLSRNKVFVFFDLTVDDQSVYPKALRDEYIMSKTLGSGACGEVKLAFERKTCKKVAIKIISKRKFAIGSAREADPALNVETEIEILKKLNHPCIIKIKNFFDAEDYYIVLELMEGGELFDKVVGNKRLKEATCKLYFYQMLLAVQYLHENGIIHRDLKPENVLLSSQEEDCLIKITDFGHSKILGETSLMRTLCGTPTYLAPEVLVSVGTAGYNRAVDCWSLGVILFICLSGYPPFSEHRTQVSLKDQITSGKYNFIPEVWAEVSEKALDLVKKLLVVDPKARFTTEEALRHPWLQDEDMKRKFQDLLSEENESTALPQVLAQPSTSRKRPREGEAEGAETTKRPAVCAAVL
Sequence of Dual specificity mitogen-activated protein kinase kinase 1 (Homo sapiens) (Q02750 whole entry): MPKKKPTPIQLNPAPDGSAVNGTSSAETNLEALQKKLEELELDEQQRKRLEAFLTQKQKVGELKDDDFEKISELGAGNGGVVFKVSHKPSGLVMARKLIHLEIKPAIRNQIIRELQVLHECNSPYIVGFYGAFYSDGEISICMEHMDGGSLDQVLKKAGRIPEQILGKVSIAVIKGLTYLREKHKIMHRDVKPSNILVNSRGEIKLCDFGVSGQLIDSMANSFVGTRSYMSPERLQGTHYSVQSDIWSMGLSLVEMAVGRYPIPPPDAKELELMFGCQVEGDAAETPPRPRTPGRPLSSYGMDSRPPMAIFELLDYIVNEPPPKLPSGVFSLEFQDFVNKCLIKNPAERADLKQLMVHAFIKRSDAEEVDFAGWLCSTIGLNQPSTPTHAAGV
Sequence of MAP/microtubule affinity-regulating kinase 3 (Homo sapiens) (P27448 whole entry, looked up): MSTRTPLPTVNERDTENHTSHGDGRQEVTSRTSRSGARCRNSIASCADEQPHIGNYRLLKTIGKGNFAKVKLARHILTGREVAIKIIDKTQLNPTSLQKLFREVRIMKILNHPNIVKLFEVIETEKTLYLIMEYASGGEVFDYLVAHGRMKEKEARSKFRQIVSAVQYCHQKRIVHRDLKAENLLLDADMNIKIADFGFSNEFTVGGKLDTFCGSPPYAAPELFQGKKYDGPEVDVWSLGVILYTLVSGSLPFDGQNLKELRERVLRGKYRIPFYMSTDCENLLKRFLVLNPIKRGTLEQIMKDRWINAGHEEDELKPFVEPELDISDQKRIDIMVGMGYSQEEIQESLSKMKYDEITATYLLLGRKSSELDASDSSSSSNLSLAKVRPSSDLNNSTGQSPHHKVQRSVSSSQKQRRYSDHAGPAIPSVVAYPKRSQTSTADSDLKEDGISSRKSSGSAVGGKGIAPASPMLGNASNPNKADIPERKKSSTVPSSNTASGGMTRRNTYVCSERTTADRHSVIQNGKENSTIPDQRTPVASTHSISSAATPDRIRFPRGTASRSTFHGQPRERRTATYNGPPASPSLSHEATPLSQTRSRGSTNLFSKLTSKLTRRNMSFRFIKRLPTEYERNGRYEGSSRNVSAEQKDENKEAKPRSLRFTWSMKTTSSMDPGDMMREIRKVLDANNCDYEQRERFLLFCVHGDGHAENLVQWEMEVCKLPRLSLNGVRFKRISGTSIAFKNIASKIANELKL
Sequence of Proto-oncogene tyrosine-protein kinase LCK (P06240 whole entry): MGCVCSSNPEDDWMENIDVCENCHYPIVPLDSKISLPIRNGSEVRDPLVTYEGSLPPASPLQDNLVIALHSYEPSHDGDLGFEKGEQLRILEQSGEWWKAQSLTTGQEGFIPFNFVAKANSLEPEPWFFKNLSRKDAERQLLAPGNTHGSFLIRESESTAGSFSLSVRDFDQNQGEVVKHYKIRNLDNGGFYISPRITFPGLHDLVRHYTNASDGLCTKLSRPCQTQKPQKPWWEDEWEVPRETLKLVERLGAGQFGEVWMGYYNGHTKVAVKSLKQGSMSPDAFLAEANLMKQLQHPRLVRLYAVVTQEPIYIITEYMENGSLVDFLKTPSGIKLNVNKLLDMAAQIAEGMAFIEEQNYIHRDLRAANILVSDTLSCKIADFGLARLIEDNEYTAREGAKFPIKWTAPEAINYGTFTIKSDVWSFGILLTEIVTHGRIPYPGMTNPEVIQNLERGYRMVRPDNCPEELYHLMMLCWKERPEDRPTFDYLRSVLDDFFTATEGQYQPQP
Sequence of Serine/threonine-protein kinase PAK 6 (Homo sapiens) (Q9NQU5 whole entry, looked up): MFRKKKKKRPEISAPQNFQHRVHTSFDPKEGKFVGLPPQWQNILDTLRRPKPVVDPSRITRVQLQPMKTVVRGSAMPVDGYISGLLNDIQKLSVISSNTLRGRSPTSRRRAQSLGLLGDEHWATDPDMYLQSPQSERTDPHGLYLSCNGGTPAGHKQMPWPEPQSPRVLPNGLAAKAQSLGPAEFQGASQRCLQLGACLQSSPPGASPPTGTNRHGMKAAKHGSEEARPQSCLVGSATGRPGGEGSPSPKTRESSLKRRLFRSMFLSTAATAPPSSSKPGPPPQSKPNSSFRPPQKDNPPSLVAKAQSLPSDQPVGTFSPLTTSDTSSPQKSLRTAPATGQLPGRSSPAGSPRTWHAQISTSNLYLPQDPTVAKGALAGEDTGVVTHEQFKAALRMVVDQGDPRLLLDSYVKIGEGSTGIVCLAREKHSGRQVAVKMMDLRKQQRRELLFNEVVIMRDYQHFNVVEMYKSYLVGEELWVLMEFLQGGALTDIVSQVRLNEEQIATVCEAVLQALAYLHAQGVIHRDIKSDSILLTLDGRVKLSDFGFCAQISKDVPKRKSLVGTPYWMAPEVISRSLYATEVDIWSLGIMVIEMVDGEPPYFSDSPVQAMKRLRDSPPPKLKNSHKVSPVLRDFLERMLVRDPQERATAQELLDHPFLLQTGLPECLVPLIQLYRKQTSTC

Structure (SMILES) | Activity [4] | Activity [5] | Activity [6] | Activity [7] | Activity [8] | Activity [9] | Activity [10] | Activity [11] | Activity [12] | further results
Cn1cc(C2=C(c3ccc(Cl)cc3Cl)C(=O)NC2=O)c2ccccc21 |  |  |  |  |  |  |  |  |  | Activity [1]: 85%; Activity [2]: 90%; Activity [3]: 76%
O=C(NCCCNc1nc(Nc2cccc(NC(=O)N3CCCC3)c2)ncc1I)c1cccs1 | 92% | 91% |  |  |  |  |  |  |  | 
CN[C@@H]1C[C@H]2O[C@@](C)([C@@H]1OC)n1c3ccccc3c3c4c(c5c6ccccc6n2c5c31)C(=O)N[C@H]4O (stereo in doubt) | 85% | 96% |  |  |  |  |  |  |  | 
COc1cc(OC)c(/C=C2/C(=O)Nc3ccccc32)c(OC)c1 |  |  | 43% | 86% | 82% | 67% | 55% | 90% | 86% | 
Cc1ccc(-c2c(C(=O)CF)n(CCCO)c3ncnc(N)c23)cc1 |  |  |  |  |  |  |  |  |  | IC50 [13]: 750 nM (antagonist); Activity [14]: 89%
NCCNS(=O)(=O)c1ccc(Cl)c2ccncc12 |  |  | 28% | 86% | 81% | 86% | 82% | 87% | 76% | 
